Measurements from article PMC11724075, “Small-molecule-induced ERBB4 activation to treat heart failure” (Nature Communications, 2025).
Where “and” joins values, the source holds several entries; their conditions need not be identical. Equal entries are not always repeated.

Experiments:
[1] = test system: mouse model of AngII-induced myocardial fibrosis; experiment: AngII-induced myocardial fibrosis mouse model, 4 weeks, echocardiography, wild-type mice; type: in vivo
Protocol: Four weeks after implantation, cardiac ultrasound was performed, mice were euthanized, and hearts were collected. A similar set-up was used for the 1-week study (Alzet, model 1007D) in male mice (n = 9-10 mice in every group).
Echocardiography was performed using the Vevo F2-LAZRX (FUJIFILM VisualSonics) and UHF57x probe. Mice were anesthetized with 1.5% isoflurane (Alvira, BE-V512222). Parasternal long-axis B-mode images and M-mode images were obtained and analyzed using VevoLAB software (FUJIFILM VisualSonics, Version 5.7.1). For the AngII experiments, measurements were obtained through analysis of the short-axis M-mode. For the MI experiments, measurements were obtained through analysis of the parasternal long-axis B-mode, of which the area and end-volume of the left ventricular cavity in diastole and systole were determined by tracing the endocardial border. Acquisitions, measurements and analyses were performed blinded.
Supplementary Table 2. Echocardiographic parameters. Echocardiographic parameters obtained through the analysis of the M-mode short-axis views. (a) Male and (b) female wild-type mice treated […]
mice in EF-1 group). (c) Male wild-type mice treated with AngII and NA-1 (n=5 male mice in Ctrl and AngII/Veh group, n=4 male mice in AngII/NA -1 group). (d) Comparison between wild-type and Erbb4-null mice (n=10 male and female wild -type mice and n=6 male and female Erbb4-null mice). (e) Male […]
Echocardiographic parameters obtained through left ventricular trace analysis of the parasternal long-axis obtained in B-mode in female wild-type mice that underwent a sham or MI operation: mice with […]
in MI/EF-1 group). (g) Echocardiographic parameters obtained through left ventricular trace analysis of the parasternal long-axis obtained in B-mode in male wild-type mice that underwent a sham or MI […]
male mice in MI/Veh group for T2 and T4). Echocardiographic parameters were measured weekly (indicated by ‘T’). All data are presented as mean (value of individual mice) ± SD, two-tailed unpaired […]
1 groups. Source data are provided as a Source Data file. AngII, angiotensin II; ANOVA, analysis of variance; Ctrl, control; DOX, doxorubicin; EF, ejection fraction; ERBB4, erythroblastic leukemia viral oncogene homolog 4; FS, fractional shortening; IVSd, interventricular septum thickness in diastole; IVSs, interventricular septum thickness in systole; LVIDd, left ventricular internal diameter in diastole; LVIDs, left ventricular internal diameter in systole; LVPWd, left ventricular posterior wall thickness in diastole; LVPWs, left ventricular posterior wall thickness in systole; MI, myocardial infarction; NA, non-activating pharmacophore-containing compound; SD, standard variation; Veh, vehicle.

ERBB4 receptor = molecular target: T1, ERBB4 receptor (Homo sapiens, UniProt Q15303); experiment: Fluorescence-based competition binding assay with F-NRG1 (flow cytometry) on U2OS ERBB4/ERBB4 cells; details: for Fluorescence-based competition assay with NRG1 and EF-1 (normalized signal): individual replicates
T1 construct: host or cells: U2OS (osteosarcoma cells), PathHunter engineered line
T1 sequence (Q15303 26-1308): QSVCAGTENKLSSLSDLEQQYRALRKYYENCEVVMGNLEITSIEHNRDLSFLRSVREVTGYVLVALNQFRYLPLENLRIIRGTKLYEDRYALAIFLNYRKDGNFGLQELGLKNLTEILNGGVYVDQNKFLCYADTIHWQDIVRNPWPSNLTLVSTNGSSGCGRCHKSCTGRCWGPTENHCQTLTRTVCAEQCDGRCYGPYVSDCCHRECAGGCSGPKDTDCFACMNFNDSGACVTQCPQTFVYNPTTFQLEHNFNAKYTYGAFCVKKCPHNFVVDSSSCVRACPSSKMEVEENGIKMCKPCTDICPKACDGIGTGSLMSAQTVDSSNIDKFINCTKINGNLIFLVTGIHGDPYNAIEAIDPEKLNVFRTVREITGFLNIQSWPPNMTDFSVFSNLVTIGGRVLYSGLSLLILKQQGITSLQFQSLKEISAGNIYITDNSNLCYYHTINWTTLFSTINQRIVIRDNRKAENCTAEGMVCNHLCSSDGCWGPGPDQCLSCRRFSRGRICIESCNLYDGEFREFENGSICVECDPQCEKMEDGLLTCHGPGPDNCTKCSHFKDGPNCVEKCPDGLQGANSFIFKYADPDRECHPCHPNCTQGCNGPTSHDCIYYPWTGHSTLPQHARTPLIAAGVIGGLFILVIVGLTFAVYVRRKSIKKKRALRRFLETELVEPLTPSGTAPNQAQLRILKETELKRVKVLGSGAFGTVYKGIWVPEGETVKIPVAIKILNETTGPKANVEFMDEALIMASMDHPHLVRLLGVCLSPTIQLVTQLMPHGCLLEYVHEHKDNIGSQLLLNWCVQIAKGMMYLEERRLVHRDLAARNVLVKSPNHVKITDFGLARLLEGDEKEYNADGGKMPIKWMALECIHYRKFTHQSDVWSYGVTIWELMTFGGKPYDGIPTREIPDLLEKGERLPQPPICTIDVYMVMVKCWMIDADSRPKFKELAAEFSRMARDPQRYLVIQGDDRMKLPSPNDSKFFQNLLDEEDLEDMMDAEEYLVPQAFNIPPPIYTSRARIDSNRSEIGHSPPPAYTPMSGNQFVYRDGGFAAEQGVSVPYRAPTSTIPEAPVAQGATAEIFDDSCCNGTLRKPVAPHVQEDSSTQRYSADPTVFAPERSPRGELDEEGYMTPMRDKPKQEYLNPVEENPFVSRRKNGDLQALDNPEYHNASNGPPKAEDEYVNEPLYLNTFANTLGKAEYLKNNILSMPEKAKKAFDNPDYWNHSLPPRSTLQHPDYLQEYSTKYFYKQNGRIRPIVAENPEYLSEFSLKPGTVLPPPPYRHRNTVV
T1 sequence (Q15303 26-1308): as above
Protocol: NRG1 was dissolved in PBS at a concentration of 1 mg/mL and labeled with Alexa Fluor 488 using the Alexa Fluor 488 microscale protein labeling kit (Thermo Fisher Scientific, A30006). A Bio-gel P-4 (Bio-Rad, 1504124) fine resin suspended in PBS and a dye:protein molar ratio of 5 was used to purify the labeled NRG1 according to the manufacturer’s instructions. Fluorescent labeling was evaluated by performing a dose-response experiment using F-NRG1 (1–1000 nM) on the U2OS ERBB4/ERBB4 dimerization cell line. Next, the same cell line was used to perform a competition binding assay with F-NRG1 using flow cytometry. Cells were plated in transparent U-bottom 96-well plates (Greiner Bio-One, M9436) at 5 × 10^5 cells/mL in 50 μL ice-cold buffer (PBS with 0.1% bovine serum albumin (BSA; Sigma-Aldrich, A7906) and 0.05% sodium azide (Sigma-Aldrich, S2002)). Next, cells were centrifuged at 17,968 × g for 4 min at RT and the supernatants were discarded. The cell pellets were washed with 50 μL ice-cold buffer by gently pipetting up and down. Centrifugation and washing were repeated, and the supernatants were discarded. For the competition assay between NRG1 and F-NRG1, cells were treated with NRG1 (1–100 nM) and F-NRG1 (30 nM). […] After gentle mixing of each sample, the plate was incubated for 1 h at 4 °C on a microplate shaker. Next, the plate was centrifuged at 17,968 × g for 4 min at RT and the supernatants were discarded. The cells were then washed with 100 μL ice-cold buffer, pelleted by centrifugation and washed again. The supernatants were discarded and 100 μL ice-cold buffer was added to the cell pellets and pipetted up and down to generate single-cell suspensions. These suspensions were transferred to 5-mL polystyrene round-bottom tubes, kept on ice, and exposed to minimum light until flow cytometric analysis (BD Accuri C6, BD Biosciences). Unstained cells were used to set the parameters of the flow cytometer.
Supplementary Figure 3. Receptor binding assay. (a) Fluorescence-based competition assay between […]
The Y-axis represents the […]
percentage of specific binding of F-NRG1, the x-axis represents the molar concentration of unlabeled […]
(b) DRC showing t he effect of NRG1 (full line with full circle) on the […]
1x10-6 M NRG1; n=5 biological replicates for NRG1 + EF -1 10 µM for all concentrations of NRG1, except […]
concentrations of NRG1, except n=2 for 3x10-7 M and 1x10-6 M NRG1). All data are presented as mean ± SD. Source data are provided as a Source Data file . CPD, compound; DRC; dose response curve; FC, fold change; F-NRG1, fluorescent ly labeled NRG1; M, molar concentration; NRG1, neuregulin-1; Veh, […]

[2] = Female wild-type mice, AngII/EF-1
[3] = Male wild-type mice, AngII/EF-1
[4] = Male wild-type mice, EF-1 without AngII
[5] = female wild-type mice, AngII/EF-1, 4 weeks, mean ± SD
[6] = male wild-type mice, AngII + compound 2 mg/kg/day, 4 weeks, mean ± SD
[7] = male wild-type mice, EF-1 group without AngII, 4 weeks, mean ± SD
[8] = Male wild-type mice, AngII/NA-1

O=C(NC1CC1)C(Sc1nc2ccccc2c(=O)n1C1CCCC1)c1ccccc1 (stereo not shown) [EF-1]
effect on cardiac dimensions on ultrasound (in words) ([1]; AngII model, both sexes): did not significantly alter cardiac dimensions
FS [1, 2]: 11.5 ± 5.5%
IVSd [1, 2]: 0.53 ± 0.07 mm
IVSs [1, 2]: 0.7 ± 0.1 mm
LVIDd [1, 2]: 4.2 ± 0.3 mm
LVIDs [1, 2]: 3.7 ± 0.4 mm
LVPWd [1, 2]: 0.5 ± 0.1 mm
LVPWs [1, 2]: 0.6 ± 0.1 mm
FS [1, 3]: 16.6 ± 3.6%
IVSd [1, 3]: 0.8 ± 0.1 mm
IVSs [1, 3]: 1.1 ± 0.2 mm
LVIDd [1, 3]: 4.4 ± 0.3 mm
LVIDs [1, 3]: 3.7 ± 0.4 mm
LVPWd [1, 3]: 0.8 ± 0.2 mm
LVPWs [1, 3]: 0.9 ± 0.2 mm
FS [1, 4]: 18.5 ± 5.1%
IVSd [1, 4]: 0.9 ± 0.1 mm
IVSs [1, 4]: 1.2 ± 0.1 mm
LVIDd [1, 4]: 4.2 ± 0.3 mm
LVIDs [1, 4]: 3.4 ± 0.3 mm
LVPWd [1, 4]: 0.75 ± 0.03 mm
LVPWs [1, 4]: 0.9 ± 0.1 mm
FS [1, 5]: 11.5 ± 5.5%
IVSd [1, 5]: 0.53 ± 0.07 mm
IVSs [1, 5]: 0.7 ± 0.1 mm
LVIDd [1, 5]: 4.2 ± 0.3 mm
LVIDs [1, 5]: 3.7 ± 0.4 mm
LVPWd [1, 5]: 0.5 ± 0.1 mm
LVPWs [1, 5]: 0.6 ± 0.1 mm
FS [1, 6]: 16.6 ± 3.6%
IVSd [1, 6]: 0.8 ± 0.1 mm
IVSs [1, 6]: 1.1 ± 0.2 mm
LVIDd [1, 6]: 4.4 ± 0.3 mm
LVIDs [1, 6]: 3.7 ± 0.4 mm
LVPWd [1, 6]: 0.8 ± 0.2 mm
LVPWs [1, 6]: 0.9 ± 0.2 mm
FS [1, 7]: 18.5 ± 5.1%
IVSd [1, 7]: 0.9 ± 0.1 mm
IVSs [1, 7]: 1.2 ± 0.1 mm
LVIDd [1, 7]: 4.2 ± 0.3 mm
LVIDs [1, 7]: 3.4 ± 0.3 mm
LVPWd [1, 7]: 0.75 ± 0.03 mm
LVPWs [1, 7]: 0.9 ± 0.1 mm
competition with F-NRG1 binding (in words) (ERBB4 receptor; EF-1 0.1–100 μM, 30 nM F-NRG1): did not reduce binding of F-NRG1
Fluorescence-based competition assay with NRG1 and EF-1 (normalized signal) (ERBB4 receptor; concentration 100 pM): 100
Fluorescence-based competition assay with NRG1 and EF-1 (normalized signal) (ERBB4 receptor; concentration 1e-7 M): 100 and 98 and 104
Fluorescence-based competition assay with NRG1 and EF-1 (normalized signal) (ERBB4 receptor; concentration 1e-6 M): 102 and 93 and 105
Fluorescence-based competition assay with NRG1 and EF-1 (normalized signal) (ERBB4 receptor; concentration 1e-5 M): 98 (2×) and 92
Fluorescence-based competition assay with NRG1 and EF-1 (normalized signal) (ERBB4 receptor; concentration 0.0001 M): 94 (2×) and 95

Cc1sc2nc(SC(C)C(=O)NCc3ccc4c(c3)OCO4)n(-c3ccccc3)c(=O)c2c1C (stereo not shown) [NA-1]
FS [1, 8]: 18.1 ± 5.1%
IVSd [1, 8]: 1.0 ± 0.2 mm
IVSs [1, 8]: 1.4 ± 0.2 mm
LVIDd [1, 8]: 4.3 ± 0.7 mm
LVIDs [1, 8]: 3.5 ± 0.7 mm
LVPWd [1, 8]: 0.9 ± 0.1 mm
LVPWs [1, 8]: 1.1 ± 0.3 mm
FS [1, 6]: 18.1 ± 5.1%
IVSd [1, 6]: 1.0 ± 0.2 mm
IVSs [1, 6]: 1.4 ± 0.2 mm
LVIDd [1, 6]: 4.3 ± 0.7 mm
LVIDs [1, 6]: 3.5 ± 0.7 mm
LVPWd [1, 6]: 0.9 ± 0.1 mm
LVPWs [1, 6]: 1.1 ± 0.3 mm

neuregulin-1 [NRG1]
IC50 (ERBB4 receptor; 30 nM F-NRG1, U2OS ERBB4/ERBB4 cells, read-out: IC50, reduction of binding of fluorescent NRG1 (F-NRG1) to the ERBB4 receptor): 32 nM
Fluorescence-based competition assay with NRG1 and EF-1 (normalized signal) (ERBB4 receptor; concentration 100 pM): 100
Fluorescence-based competition assay with NRG1 and EF-1 (normalized signal) (ERBB4 receptor; concentration 1e-9 M): 68.5222 and 84.1596 and 93.8458 and 74.5974 and 128.088 and 100
Fluorescence-based competition assay with NRG1 and EF-1 (normalized signal) (ERBB4 receptor; concentration 3e-9 M): 80.2455 and 83.5978 and 102.302 and 89.9396 and 83.9805 and 87.652
Fluorescence-based competition assay with NRG1 and EF-1 (normalized signal) (ERBB4 receptor; concentration 1e-8 M): 67.9682 and 69.1706 and 85.6667 and 81.6967
Fluorescence-based competition assay with NRG1 and EF-1 (normalized signal) (ERBB4 receptor; concentration 3e-8 M): 77.0259 and 43.4293 and 100.206 and 81.3756 and 87.2588 and 82.6252 and 67.1018 and 62.6829 and 44.3344 and 108.803
Fluorescence-based competition assay with NRG1 and EF-1 (normalized signal) (ERBB4 receptor; concentration 5e-8 M): 65.1587 and 61.7658 and 51.2875 and 66.8315
Fluorescence-based competition assay with NRG1 and EF-1 (normalized signal) (ERBB4 receptor; concentration 7.5e-8 M): 7.1162 and 78.7156 and 54.3916 and 66.0513 and 10.1361 and 60.285 and -8.7833 and 64.1512
Fluorescence-based competition assay with NRG1 and EF-1 (normalized signal) (ERBB4 receptor; concentration 9e-8 M): 47.1877 and 5.376 and 43.6793
Fluorescence-based competition assay with NRG1 and EF-1 (normalized signal) (ERBB4 receptor; concentration 1e-7 M): 0
